We go through 8 molecules from patent US20230416328A1, “C-Type Natriuretic Peptides and Methods Thereof in Treating Acute Lung Injury” (priority 2020, published 2023).

Numbered stars: 1 amine (or outer) side, 2 acyl side, 3 side chain; on linkers, the order of the positions; unused ones are H or OH. Bridge positions count the residues as written; N and C are the ends. Square brackets hold non-standard residues; d marks the D form. Peptide text beside a SMILES is read from it. * marks the point of attachment. C18 diacid = O=C(O)CCCCCCCCCCCCCCCCC(=O)*; γGlu = O=C(O)[C@H](CCC(=O)[*:2])N[*:1]; Aad = N[C@@H](CCCC(=O)O)C(=O)O; AEEA = NCCOCCOCC(=O)O

Data set [1] concerns LPS-induced sepsis. The data set is described as follows: LPS-induced sepsis lethality in Balb/c mice (survival). It counts as in vivo. The conditions noted are these: LPS 10 mg/kg i.p., 1.0 mg/kg s.c. How it is done: Male Balb/c mice (11 week) were purchased from Kyudo (Saga, Japan) and maintained under a 12-hour light/12-hour dark cycle with free access to water and standard mouse diet (MF diet, Oriental Yeast Co., Ltd. Tokyo, Japan). […] Test articles were administered right after LPS administration. Survival was observed every 2 hours.
Table 1. […] Shown is the % survival by hours. […] Survival was observed every 2 hours (FIGS. 13A and 13B). First mortality observed was in Italicized and bold and the last observation survival % was in bold in the table.

For data set [2] the following is noted: healthy human volunteers, bolus injection; cited from earlier work.
For data set [3] the following is noted: species not stated; cited from earlier work.
A short description of data set [4]: Pharmacokinetic study: plasma CNP (ELISA) after subcutaneous bolus in CD-1 mice. How it is done:
All test articles were formulated or dissolved in 100 mM sorbitol, 100 mM methionine, 20 mM histidine, pH 6.0. […] Blood samples were processed in K2EDTA tubes to obtain plasma. Plasma was analyzed by commercially available CNP ELISA kit from Phoenix Pharmaceuticals (cat #EKE-012-03).
Background: In an ELISA, binding on a coated surface is turned into a signal by an enzyme label.

Data set [5] in a line: Pharmacokinetic study of dCNP-s1 and dCNP-s2: plasma CNP (ELISA) in CD-1 mice. The class given is in vivo. The conditions noted are these: 2.0 mg/Kg s.c. bolus, FIG. 20. How it is done: For this pharmacokinetic study, all animals (mice) for this study were maintained under a 12-hour light/12-hour dark cycle with free access to water and standard mouse diet (Lab Pico Rodent #5053; Animal Specialties, Woodburn, OR). Male CD-1 mice (6-8 weeks old; Charles River, Hollister, CA) were treated with 2.0 mg/Kg of CNP derivative s1 (dCNP-s1; PharmaIN Corp, Bothell, WA), and CNP derivative s2 (dCNP-s2; PharmaIN Corp, Bothell, WA) via subcutaneous administration between the shoulder blades.

For data set [6] the following is noted: in vivo; cited from earlier work.
Where [7] appears, read: hours '0' [sic] (second to last observation).

Turning to `CC[C@H](C)[C@@H]1NC(=O)[C@H](CCCNC(=N)N)NC(=O)[C@H](CC(=O)O)NC(=O)[C@H](CCSC)NC(=O)[C@H](CCCNC(=N)N)NC(=O)CNC(=O)CNC(=O)[C@H](Cc2ccccc2)NC(=O)[C@@H](NC(=O)[C@H](CO)NC(=O)[C@H](CO)NC(=O)[C@H](CCCNC(=N)N)NC(=O)[C@H](CCCNC(=N)N)NC(=O)[C@H](CC(C)C)NC(=O)[C@@H](N)CO)CSSC[C@@H](C(=O)N[C@@H](CC(N)=O)C(=O)N[C@@H](CO)C(=O)N[C@@H](Cc2ccccc2)C(=O)N[C@@H](CCCNC(=N)N)C(=O)N[C@@H](Cc2ccc(O)cc2)C(=O)O)NC(=O)CNC(=O)[C@H](CC(C)C)NC(=O)CNC(=O)[C@H](CO)NC(=O)[C@H](CCC(N)=O)NC(=O)[C@H](C)NC(=O)CNC1=O` [ANP, atrial natriuretic peptide], the “Percent animal survival at various time after LPS administration” value (“Percent animal survival at various time” below) in data set [1] (hours 1 (last observation)) is listed as 10%; in data set [1] (hours 3 [sic]), 100%; in data set [1] (hours 7 [sic]), 60%; in data set [1] (hours 9 [sic]), 30%; in data set [1] (hours '0'), 100%; in data set [1] (setting [7]) it was 10%. In addition, the “Percent animal survival at various time” value stood at 100% in data set [1] (hours '2'), 30% in data set [1] (hours '8') and 60% in data set [1] (hours printed '6' (r14)).
Usually half-life stands for the time needed for the level to fall by half in the phase considered. Turning to `CC[C@H](C)[C@@H]1NC(=O)[C@H](CCCNC(=N)N)NC(=O)[C@H](CC(=O)O)NC(=O)[C@H](CC(C)C)NC(=O)[C@H](CCCCN)NC(=O)[C@H](CC(C)C)NC(=O)CNC(=O)[C@H](Cc2ccccc2)NC(=O)[C@@H](NC(=O)CNC(=O)[C@H](CCCCN)NC(=O)[C@H](CO)NC(=O)[C@H](CC(C)C)NC(=O)CN)CSSC[C@@H](C(=O)O)NC(=O)CNC(=O)[C@H](CC(C)C)NC(=O)CNC(=O)[C@H](CO)NC(=O)[C@H](CCSC)NC(=O)[C@H](CO)NC(=O)CNC1=O` [CNP], in data set [2], the heart rate result is listed as “significant increase in heart rate”; the “systolic and diastolic blood pressure” value is given as “transient but significant decrease”. Also, the half-life in data set [3] is 2 to 13 min. Also, the “plasma CNP” value in data set [4] (CD-1 mice, 2.0 mg/Kg s.c. bolus, FIG. 1A) is recorded as “low plasma level of CNP”.
Turning to `CCCc1nc(C)c2c(=O)[nH]c(-c3cc(S(=O)(=O)N4CCN(CC)CC4)ccc3OCC)nn12` [VDN, Vardenafil], the “Percent animal survival at various time” value in data set [1] (hours 1 (last observation)) was 0%; in data set [1] (hours 3 [sic]), 100%; in data set [1] (hours 7 [sic]), 60%; in data set [1] (hours 9 [sic]), 20%; in data set [1] (hours '0'), 100%; in data set [1] (setting [7]), 0%. For the same molecule, the “Percent animal survival at various time” value in data set [1] (hours '2') amounted to 100%; in data set [1] (hours '8') it was 20%; in data set [1] (hours printed '5' (r13)), 100%.
With `CC[C@H](C)[C@@H]1NC(=O)[C@H](CCCNC(=N)N)NC(=O)[C@H](CC(=O)O)NC(=O)[C@H](CC(C)C)NC(=O)[C@H](CCCCN)NC(=O)[C@H](CC(C)C)NC(=O)CNC(=O)[C@H](Cc2ccccc2)NC(=O)[C@@H](NC(=O)CNC(=O)COCCOCCNC(=O)COCCOCCNC(=O)CCCCCCCCCCCCCCCCC(=O)O)CSSC[C@@H](C(=O)O)NC(=O)CNC(=O)[C@H](CC(C)C)NC(=O)CNC(=O)[C@H](CO)NC(=O)[C@H](CCCC(N)=O)NC(=O)[C@H](CO)NC(=O)CNC1=O` [dCNP-s1] ({C18 diacid-AEEA-AEEA}-GCFGLKLDRIGS[Aad](NH2)SGLGC-OH; disulfide 2-18), in data set [5], the “blood level of CNP relative to native CNP at similar weight/Kg dose” value amounted to 10 fold.
Still for that read-out and setting: in the case of `CC[C@H](C)[C@@H]1NC(=O)[C@H](CCCNC(=N)N)NC(=O)[C@H](CC(=O)O)NC(=O)[C@H](CC(C)C)NC(=O)[C@H](CCCCN)NC(=O)[C@H](CC(C)C)NC(=O)CNC(=O)[C@H](Cc2ccccc2)NC(=O)[C@@H](NC(=O)CNC(=O)COCCOCCNC(=O)COCCOCCNC(=O)CC[C@H](NC(=O)CCCCCCCCCCCCCCCCC(=O)O)C(=O)O)CSSC[C@@H](C(=O)O)NC(=O)CNC(=O)[C@H](CC(C)C)NC(=O)CNC(=O)[C@H](CO)NC(=O)[C@H](CCCC(N)=O)NC(=O)[C@H](CO)NC(=O)CNC1=O` [dCNP-s2] ({C18 diacid-γGlu-AEEA-AEEA}-GCFGLKLDRIGS[Aad](NH2)SGLGC-OH; disulfide 2-18) it was 10 fold.
In the case of `CCCCCCCCCCCCCCCCCC(=O)N[C@@H](CCCCN)C(=O)N[C@@H](CCCCN)C(=O)N[C@@H](CCCCN)C(=O)N[C@@H](CCCCN)C(=O)NCC(=O)NCC(=O)NCC(=O)NCC(=O)N[C@@H](CC(C)C)C(=O)N[C@@H](CO)C(=O)N[C@@H](CCCCN)C(=O)NCC(=O)N[C@H]1CSSC[C@@H](C(=O)O)NC(=O)CNC(=O)[C@H](CC(C)C)NC(=O)CNC(=O)[C@H](CO)NC(=O)[C@H](CCSC)NC(=O)[C@H](CO)NC(=O)CNC(=O)[C@H]([C@@H](C)CC)NC(=O)[C@H](CCCNC(=N)N)NC(=O)[C@H](CC(=O)O)NC(=O)[C@H](CC(C)C)NC(=O)[C@H](CCCCN)NC(=O)[C@H](CC(C)C)NC(=O)CNC(=O)[C@H](Cc2ccccc2)NC1=O` [dCNP], in data set [4] (mouse, in vivo, sc, 2 mg/kg), the “plasma CNP” value was “sustained plasma presence”.
B-type natriuretic peptide [BNP]: the “Percent animal survival at various time” value was determined as 10% in data set [1] (hours 1 (last observation)); 100% in data set [1] (hours 3 [sic]); 60% in data set [1] (hours 7 [sic]); 20% in data set [1] (hours 9 [sic]); 100% in data set [1] (hours '0'); 10% in data set [1] (setting [7]). In addition, the “Percent animal survival at various time” value in data set [1] (hours '2') is 100%; in data set [1] (hours '8') it was 20%; in data set [1] (hours printed '5' (r13)), 100%.
“PGQEHPNARKYKGANKKGLS KGCFGLKLDR IGSMSGLGC (PGQEHPNARKYKGANKKGLSKGCFGLKLDRIGSMSGLGC) [BMN-111]”: in data set [6], the “arterial blood pressure (BP)” value is recorded as “drops” and the “heart rate (HR)” value is given as “increases”.
